# From US20260090997A1, “Lipid Nanoparticles Comprising Nucleic Acids Encoding Therapeutic Genes and Uses in Medical Methods” (priority 2022, published 2026)
# Test system: FADU xenografts
# Assay: Intratumoral NanoLuc mRNA delivery into FADU xenografts, bioluminescence
# Type: in vivo, Nu/J mice
# Conditions: LNPs containing MC3, cKK-E12, SM-102 or C12-200
# From the text: FIG. 5A illustrates different LNPs formulated to carry NanoLuc reporter mRNA to evaluate effective intratumoral injections into FADU xenografts. To identify the most suitable ionizable lipid for intratumoral delivery, an in vivo imaging system was used to quantify the bioluminescence resulting from the functional delivery of NanoLuc mRNA using LNPs containing four different ionizable lipids: MC3, cKK-E12, SM-102, and C12-200.
smiles,measurement,value
CCCCCCCCCCC(O)CN(CCN1CCN(CCN(CC(O)CCCCCCCCCC)CC(O)CCCCCCCCCC)CC1)CCN(CC(O)CCCCCCCCCC)CC(O)CCCCCCCCCC (stereo not shown) [C12-200],"bioluminescence from functional delivery of NanoLuc mRNA, comparison of ionizable lipids",optimal ionizable lipid
